The target of experiment [1] is T1, P450 2B4 H172Q (Oryctolagus cuniculus, UniProt P00178, H172Q).
T1 sequence (P00178 with tags, fused parts or gaps H172Q limits assumed): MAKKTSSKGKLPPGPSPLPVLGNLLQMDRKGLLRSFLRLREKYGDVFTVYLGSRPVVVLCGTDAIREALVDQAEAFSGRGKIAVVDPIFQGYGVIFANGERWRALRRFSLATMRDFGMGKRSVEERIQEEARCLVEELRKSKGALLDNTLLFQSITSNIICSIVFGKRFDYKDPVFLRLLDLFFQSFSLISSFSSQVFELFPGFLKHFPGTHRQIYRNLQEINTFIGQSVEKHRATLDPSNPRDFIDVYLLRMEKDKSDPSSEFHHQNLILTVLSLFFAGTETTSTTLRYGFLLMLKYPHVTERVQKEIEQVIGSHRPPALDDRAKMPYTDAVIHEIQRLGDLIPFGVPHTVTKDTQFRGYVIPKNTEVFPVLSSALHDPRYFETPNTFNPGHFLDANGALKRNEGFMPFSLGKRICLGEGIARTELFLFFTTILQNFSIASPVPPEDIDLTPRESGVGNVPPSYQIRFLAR
The experiment is classed as biochemical, rabbit (Oryctolagus cuniculus).

Experiment [2] addresses T2, P450 2B4 E474D (Oryctolagus cuniculus, UniProt P00178, E474D).
T2 sequence (P00178 with tags, fused parts or gaps E474D limits assumed): T1 sequence (P00178 with tags, fused parts or gaps H172Q limits assumed) with Q153H, E455D
The experiment is classed as biochemical, rabbit (Oryctolagus cuniculus).

Molecules are shown by their SMILES. Residue numbers refer to the chain shown, from its start.

The term kcat denotes the number of substrate molecules converted per active site and unit of time at saturation.

As to `O=c1ccc2nc3ccc(OCc4ccccc4)cc3oc-2c1` [7-BR, 7-benzyloxyresorufin], in experiment [1], the “decrease (change) in kcat versus wild type” value is reported as ~ 15 fold, the kcat was 0.0083 ± 0.0017 s⁻¹ and the kcat/S50 is given as 0.06. This compound also came in with an S50 in experiment [1] (Hill equation) of 8.2 ± 1.0 µM. In experiment [2], the “decrease (change) in kcat versus wild type” value is ~ 2.5 fold, the kcat came to 0.0517 ± 0.0033 s⁻¹ and the kcat/S50 was determined as 0.5. The S50 in experiment [2] (Hill equation) was 6.2 ± 0.7 µM.

These data come from paper PMC3911823 (The FEBS journal, 2011).
